Key:
[1] = biological target: T1, PAR2 (HT-29 cells, SLIGKV activation) (Homo sapiens, UniProt P55085); assay: Ca FLIPR TETRA assay, ANTAGONIST mode, stimulation with 8 μM SLIGKV; type: cell-based; conditions: for IC50: HT-29 cells
T1 construct: host or cells: HT-29 cells
T1 sequence (P55085 26-397): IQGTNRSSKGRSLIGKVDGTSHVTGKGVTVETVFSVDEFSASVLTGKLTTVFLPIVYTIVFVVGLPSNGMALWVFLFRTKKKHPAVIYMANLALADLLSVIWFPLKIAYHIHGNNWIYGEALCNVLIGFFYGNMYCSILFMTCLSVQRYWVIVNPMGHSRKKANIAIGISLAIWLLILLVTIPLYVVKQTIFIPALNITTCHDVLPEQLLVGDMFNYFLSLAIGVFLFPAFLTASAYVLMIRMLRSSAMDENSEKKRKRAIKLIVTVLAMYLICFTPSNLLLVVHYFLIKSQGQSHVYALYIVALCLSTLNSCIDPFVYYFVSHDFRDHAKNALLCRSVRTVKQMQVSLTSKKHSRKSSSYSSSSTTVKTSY
In short: (§1)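 FLIPR Tetra Ca2+ read-out in HT-29 cells, calcium 5 dye. Compound preincubation 30 min r.t., with an initial read for agonist activity. Final activator levels: SLIGKV 8 μM, thrombin 1 U/mL, trypsin 3.1 U/mL, UTP 0.6 μM.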

[2] = biological target: T2, PAR2 (HT-29 cells, trypsin activation) (Homo sapiens, UniProt P55085); assay: Ca FLIPR TETRA assay, ANTAGONIST mode, stimulation with 3.1 U/mL trypsin; type: cell-based; conditions: HT-29 cells
T2 construct: host or cells: HT-29 cells
T2 sequence (P55085 26-397): T1 sequence (P55085 26-397)
In short: as §1

[3] = tested on: Thrombin-stimulated Ca2+ response in HT-29 cells; assay: Ca FLIPR TETRA assay, ANTAGONIST mode, stimulation with 1 U/mL Thrombin; type: cell-based, human; conditions: Homo sapiens, HT-29 cells
In short: as §1

[4] = tested on: UTP-stimulated Ca2+ response in HT-29 cells; assay: Ca FLIPR TETRA assay, ANTAGONIST mode, stimulation with 0.6 μM UTP; type: cell-based, human; conditions: Homo sapiens, HT-29 cells
In short: as §1

[5] = antagonist mode, stimulation with 8 μM SLIGKV
[6] = antagonist mode, stimulation with 3.1 U/mL trypsin
[7] = antagonist mode, stimulation with 1 U/mL Thrombin
[8] = antagonist mode, stimulation with 0.6 μM UTP
[9] = stimulation with 3.1 U/mL trypsin
[10] = stimulation with 1 U/mL Thrombin
[11] = antagonist mode, 3.1 U/mL trypsin
[12] = antagonist mode, 1 U/mL Thrombin

SMILES	IC50 [1, 5] [nM]	IC50 [2, 6] [nM]	IC50 [3, 7] [nM]	IC50 [4, 8] [nM]	further results
CC(C)(C)c1cc(-c2ccc(F)c(Cl)c2)nn2cc(C(=O)N3CCN(C(=O)[C@H]4CC[C@@H](C(=O)O)CC4)CC3(C)C)nc12 [Compound I-487]	0.3	0.3	> 1000	> 1000	–
COC(=O)[C@@H]1CCN(C(=O)c2cn3nc(-c4ccc(F)cc4)cc(C)c3n2)C[C@@H]1C [Compound I-10, (3R,4R)-Methyl 1-(6-(4-fluorophenyl)-8-methylimidazo[1,2-b]pyridazine-2-carbonyl)-3-methylpiperidine-4-carboxylate]	–	–	–	–	IC50 ([1]; stimulation with 8 μM SLIGKV): 430 nM; IC50 [2, 9]: 1100 nM; IC50 [3, 10]: 16000 nM; IC50 ([4]; stimulation with 0.6 μM UTP): 18000 nM
CN1CCN(C(=O)c2cn3nc(-c4ccc(F)cc4)cc(C(C)(C)C)c3n2)C(C)(C)C1=O [Compound I-188]	1.8	4	2500	3900	–
CC(C)c1cc(-c2ccc(F)cc2)nn2cc(C(=O)N3CCN(C(=O)C(O)c4ccc(F)cc4)[C@@H](C)C3)nc12 (stereo partly shown) [Compound I-108]	–	–	–	–	IC50 ([1]; stimulation with 8 μM SLIGKV): 0.7 nM; IC50 [2, 9]: 0.7 nM; IC50 [3, 10]: 8300 nM; IC50 ([4]; stimulation with 0.6 μM UTP): 16000 nM
CC(C)c1cc(-c2ccc(F)cc2)nn2cc(C(=O)N3CCN(C(=O)c4cn[nH]c4)CC3(C)C)nc12 [Compound I-327]	5.6	5.9	> 1000	> 1000	–
Cc1cccc(-c2cc(C(C)(C)C)c3nc(C(=O)N4CCN(C(=O)c5c[nH]c(C)n5)CC4(C)C)cn3n2)c1 [Compound I-407]	5.6	5.1	> 1000	> 1000	–
Cc1cc(-c2cc(C(C)C)c3nc(C(=O)N4CCN(C(=O)C(C)(C)O)CC4(C)C)cn3n2)ccc1F [Compound I-223]	16.3	26.7	> 1000	> 1000	–
Cc1nnc(C(=O)N2CCN(C(=O)c3cn4nc(-c5ccc(Cl)cc5)cc(C(C)(C)C)c4n3)C(C)(C)C2)o1 [Compound I-443]	0.8	1.2	> 1000	> 1000	–
CC(C)c1cc(-c2ccc(F)cc2)nn2cc(C(=O)N3CCN(C(=O)C(C)(N)C(F)(F)F)CC3(C)C)nc12 (stereo not shown) [Compound I-314]	10.4	7.6	> 1000	> 1000	–
CC1(C)C(=O)NCCN1C(=O)c1cn2nc(-c3ccc(F)cc3)cc(-c3ccsc3)c2n1 [Compound I-567, 4-(6-(4-fluorophenyl)-8-(thiophen-3-yl)imidazo[1,2-b]pyridazine-2-carbonyl)-3,3-dimethylpiperazin-2-one]	–	–	–	–	IC50 ([1]; antagonist mode, 8 μM SLIGKV): 23 nM; IC50 [2, 11]: 49.8 nM; IC50 [3, 12]: > 1000 nM; IC50 ([4]; antagonist mode, 0.6 μM UTP): > 1000 nM
CC(C)(O)CC(=O)N1CCN(C(=O)c2cn3nc(-c4ccc(F)cc4)cc(C(C)(C)C)c3n2)C(C)(C)C1 [Compound I-289]	1.5	2.5	430	540	–
Cc1ccc(-c2cc(C(C)C)c3nc(C(=O)N4CCN(C(=O)C(C)(C)O)CC4(C)C)cn3n2)cc1F [Compound I-251]	5.8	16.6	> 1000	> 1000	–
CC(C)(C)c1cc(-c2ccc(F)cc2)nn2cc(C(=O)N3CCN(C(=O)[C@H]4CC[C@@H](C(=O)O)CC4)CC3(C)C)nc12 [Compound I-493, (1S,4S)-4-(4-(8-(tert-butyl)-6-(4-fluorophenyl)imidazo[1,2-b]pyridazine-2-carbonyl)-3,3-dimethylpiperazine-1-carbonyl)cyclohexane-1-carboxylic acid]	0.5	0.5	760	440	–
Cc1ccc(-c2cc(C(C)(C)C)c3nc(C(=O)N4CCN(C(=O)c5ccccn5)CC4(C)C)cn3n2)cc1 [Compound I-391]	1.8	2.2	> 1000	> 1000	–
CC(O)CC(=O)N1CCN(C(=O)c2cn3nc(-c4ccc(F)cc4)cc(C(C)C)c3n2)C[C@@H]1C (stereo partly shown) [Compound I-123]	–	–	–	–	IC50 ([1]; stimulation with 8 μM SLIGKV): 200 nM; IC50 [2, 9]: 340 nM; IC50 [3, 10]: > 50000 nM; IC50 ([4]; stimulation with 0.6 μM UTP): > 50000 nM
Cc1nc(C(=O)N2CCN(C(=O)c3cn4nc(-c5ccc(C(F)(F)F)cc5)cc(C(C)C)c4n3)C(C)(C)C2)n[nH]1 [Compound I-413]	3.4	4.3	> 1000	> 1000	–
CC1(C)CN(C(=O)C2(O)CCC2)CCN1C(=O)c1cn2nc(-c3ccc(F)cc3)cc(C(F)(F)F)c2n1 [Compound I-37, [6-(4-Fluorophenyl)-8-(trifluoromethyl)imidazo[1,2-b]pyridazin-2-yl]-[4-(1-hydroxycyclobutanecarbonyl)-2,2-dimethyl-piperazin-1-yl]methanone]	–	–	–	–	IC50 ([1]; stimulation with 8 μM SLIGKV): 200 nM; IC50 [2, 9]: 250 nM; IC50 [3, 10]: > 50000 nM; IC50 ([4]; stimulation with 0.6 μM UTP): > 50000 nM

SMILES	IC50 [1, 5] [nM]	IC50 [2, 6] [nM]	IC50 [3, 7] [nM]	IC50 [4, 8] [nM]	further results
Cc1nc(N2CCN(C(=O)c3cn4nc(-c5ccc(F)cc5)cc(C(C)(C)C)c4n3)C(C)(C)C2=O)c[nH]1 [Compound I-367]	2.6	4.2	> 1000	> 1000	–
C[C@@H]1C[C@H](c2cc(-c3ccc(F)cc3)nn3cc(C(=O)N4CCN(C(=O)c5ccn[nH]5)CC4(C)C)nc23)C[C@H](C)O1 [Compound I-214]	21.2	26.8	≥ 1000	> 1000	–
CC(C)c1cc(-c2ccc(Cl)cc2)nn2cc(C(=O)N3CCN(C(=O)[C@H]4C[C@H](O)C4)CC3(C)C)nc12 [Compound I-540]	4.2	8.2	> 1000	> 1000	–
CC(C)(C)C[C@@H](O)C(=O)N1CCN(C(=O)c2cn3nc(-c4ccc(F)cc4)cc(C(F)(F)F)c3n2)CC1 [Compound I-52]	–	–	–	–	IC50 ([1]; stimulation with 8 μM SLIGKV): 140 nM; IC50 [2, 9]: 350 nM; IC50 [3, 10]: 47000 nM; IC50 ([4]; stimulation with 0.6 μM UTP): 16000 nM
Cc1cc(-c2cc(C(C)C)c3nc(C(=O)N4CCN(C(=O)[C@H]5C[C@](O)(C(F)(F)F)C5)CC4(C)C)cn3n2)ccc1F [Compound I-260]	0.7	1.1	> 100	> 100	–
CC(C)(C)c1cc(-c2ccc(F)c(F)c2)nn2cc(C(=O)N3CCNC(=O)C3(C)C)nc12 [Compound I-352]	1.2	1.5	> 1000	> 1000	–
O=C(c1cn2nc(-c3ccc(F)cc3)cc(C(F)(F)F)c2n1)N1CCCCC1c1ccn[nH]1 (stereo not shown) [Compound I-78]	–	–	–	–	IC50 ([1]; stimulation with 8 μM SLIGKV): 510 nM; IC50 [2, 9]: 1600 nM; IC50 [3, 10]: 4100 nM; IC50 ([4]; stimulation with 0.6 μM UTP): 4500 nM
Cc1cc(F)ccc1-c1cc(C(C)(C)C)c2nc(C(=O)N3CCNC(=O)C3(C)C)cn2n1 [Compound I-439]	81	125	> 1000	> 1000	–
CC(C)c1cc(-c2ccc(F)cc2)nn2cc(C(=O)N3CCOCC3(C)C)nc12 [Compound I-120]	–	–	–	–	IC50 ([1]; stimulation with 8 μM SLIGKV): 130 nM; IC50 [2, 9]: 1000 nM; IC50 [3, 10]: 20000 nM; IC50 ([4]; stimulation with 0.6 μM UTP): 24000 nM
CC(C)c1cc(-c2ccc(F)cc2)nn2cc(C(=O)N3CCN(C(=O)c4cncnc4)CC3(C)C)nc12 [Compound I-322]	41.5	69	> 1000	> 1000	–
C=C(C)c1cc(-c2ccc(F)cc2)nn2cc(C(=O)N3CCN(C)C(=O)C3(C)C)nc12 [Compound I-212]	90.3	54.7	> 1000	> 1000	–
CC(C)c1cc(-c2ccc(F)cc2)nn2cc(C(=O)N3CCN(C(=O)c4ccncc4)CC3(C)C)nc12 [Compound I-308]	28	33.5	> 1000	> 1000	–
Cc1ccc(-c2cc(C(C)C)c3nc(C(=O)N4CCN(C(=O)c5nnc(C)o5)CC4(C)C)cn3n2)cc1 [Compound I-332]	13.3	11.5	> 1000	> 1000	–
CC(C)c1cc(-c2ccc(F)cc2)nn2cc(C(=O)N3CCN(C(=O)c4ccncn4)CC3(C)C)nc12 [Compound I-236]	8.2	18.6	> 1000	> 1000	–
CC(C)(C)c1cc(-c2ccc(F)cc2)nn2cc(C(=O)N3CCN(C(=O)/C=C/C(=O)O)CC3(C)C)nc12 [Compound I-558]	–	–	–	–	IC50 ([1]; antagonist mode, 8 μM SLIGKV): 18.5 nM; IC50 [2, 11]: 43.5 nM; IC50 [3, 12]: > 1000 nM; IC50 ([4]; antagonist mode, 0.6 μM UTP): > 1000 nM
O=C(c1cn2nc(-c3ccc(F)cc3)cc(C(F)(F)F)c2n1)N1CCN(C(=O)N2CCCCC2)CC1 [Compound I-50]	–	–	–	–	SLIGKV % @ concentration ([1]; @ 1.9 (μM)): 44% @ 1.9; IC50 [2, 9]: 27000 nM; IC50 [3, 10]: > 50000 nM; IC50 ([4]; stimulation with 0.6 μM UTP): > 50000 nM
COC(=O)CCC(=O)N1CCN(C(=O)c2cn3nc(-c4ccc(F)cc4)cc(C(C)(C)C)c3n2)C(C)(C)C1 [Compound I-529]	2.2	3.7	> 1000	> 1000	–

From patent US20190119282A1, “IMIDAZOPYRIDAZINES USEFUL AS INHIBITORS OF THE PAR-2 SIGNALING PATHWAY” (Vertex Pharmaceuticals Incorporated, priority 2013, published 2019)
